In a melting point compilation (Tetko et al.; mined from patent text by program, amines drawn as free bases though some values may be those of a salt) one finds melting point data, which are given here for 89 molecules.

What is called melting point is the temperature of the solid-liquid transition. For the molecule `CC(C)N1CCC(Oc2ccc3[nH]ncc3c2)CC1`, the melting point lay in the range of 125 to 126 °C. The molecule `CCOC(=O)N1C(=O)C(C)(C)c2cc(C3=NNC(=O)SC3C)ccc21` (centres undefined) showed a melting point of 246 °C.

Take `CCCC(Cl)(Cl)C(NC(=O)c1ccc(Cl)cc1)NC(=N[N+](=O)[O-])Nc1cccnc1` (centres undefined): the melting point lay in the range of 198 to 200 °C.

As for `N#CCCc1ccnc(-c2nc(=O)c3ccccc3s2)c1`, the melting point lay within 178 to 179 °C.

With `CC1(C(=O)c2c[nH]c3ncc(-c4cccc(N5CCCC5)c4)nc23)CCCCCC1`, the melting point lay within 192 to 193 °C.

Take `Cc1cnc(-c2cc(=S)ss2)cn1`: the melting point came to 192 °C. Regarding `FC(F)(F)c1ccc2ncc(Br)cc2c1`, the melting point came out at 79 °C.

Take `N#CC(C(=O)c1ccc(-c2ccc(Cl)cc2)cc1)=C1CCCCN1`: the melting point worked out at 134 °C. For `CCn1c(=O)c2[nH]c(/C=C/c3ccc(OC)c(OC)c3)nc2n(CC)c1=O`, the melting point is 208 to 211 °C. In the case of `O=c1cc(CCl)nc2ccn(-c3ccccc3)n12` it was 194 to 196 °C; in that of `Cc1cnc(CN2CCNC2=C[N+](=O)[O-])cn1`, 163 to 166 °C. In the case of `O=C1Nc2ccccc2C(c2ccc(Cl)c(Cl)c2)CC1Br` (centres undefined) it was 183 to 188 °C. `Cc1ccc(Cl)c2sc(O)nc12`: the melting point was found to be 266 °C. In the case of `COc1cc2c(c(Br)c1OC(C)=O)Sc1cc(F)ccc1N2` it was 224 to 226 °C; in that of `COCc1c(C(=O)OC(C)C)ncc2[nH]c3cccc(OCc4ccccc4)c3c12`, 173 to 174 °C; in that of `Cc1ccccc1Nc1nc2ccc(CC(=O)Nc3ccc(C4(CC(=O)O)CCCC4)cc3)cc2o1`, 123 to 126 °C.

`O=C(CNCc1cccc(C(F)(F)F)c1)Nc1cccc2c1C(=O)c1c(NC(=O)CNCc3cccc(C(F)(F)F)c3)cccc1C2=O` returned a melting point of 190 to 191 °C. Then `CC(=O)N(Nc1ccc(Cl)cc1F)c1c(C#N)cnc2cc(O)ccc12`, with 182 to 191 °C; and `CN(C)Cc1ccc(CSCCNC2=NS(=O)(=O)N=C2N2CCCC2)o1`, with 151 to 152 °C. The molecule `O=C(Nc1ccc(Br)cn1)C(CC1CCCC1)c1ccc(Cl)c([N+](=O)[O-])c1` (centres undefined) gave a melting point of 128 to 130 °C.

As for `Nc1ncnc2c1nc(NCCP(=O)(O)O)n2C1OC(CO)C(O)C1O` (centres undefined), the melting point turned out to be 175 °C. The molecule `CCCc1nn(-c2ccc(C(F)(F)F)cn2)cc1CCCOc1ccc(CCC(=O)O)cc1` showed a melting point of 118 to 119 °C. For the molecule `O=[N+]([O-])c1cccc(-c2ccnc3ccnn23)c1`, the melting point lay in the range of 204 to 206 °C. Molecule `O=C(Nc1c[nH]nc1C(=O)Nc1ccccc1)c1ccccn1` returned a melting point of 281 to 282 °C. `Cc1ccc2c(C(C)C(N)=O)ccc(C(C)C)cc1-2` (centres undefined): the melting point is 149 to 152 °C. As to `CNC(=O)Nc1scc(C(C)(C)C)c1C#N`, the melting point is 212 to 214 °C. Then `COc1ccc(CCN2CCc3cc(O)c(OC)cc3C2)cc1`, with 170 to 171 °C.

Molecule `CN(C)c1c(F)c(F)c(F)c2c1c(=O)cc(C(=O)O)n2C1CC1` had a melting point of 160 to 163 °C. `CC(=O)NC1([N+](=O)[O-])C=C(C)C=CN1` (centres undefined) displayed a melting point of 146 to 149 °C. Then `Clc1ncc(OC[C@@H]2CCCN2)cc1-c1ccccc1`, with 75 to 80 °C.

In turn, `CCCCCCn1ccc(NC(C)=O)nc1=O` displayed a melting point of 129 to 130 °C. Then `O=C(O)CCCCCOc1ccc(C2OC3C(CO)OC(n4cnc5c(Cl)ncnc54)C3O2)cc1` (centres undefined), with 127 to 129 °C; and `Cc1cc(CSCCN)sc1CN1CCCCC1`, with 81 °C; and `CCCCn1c(=O)[nH]c(=O)c2c3n(nc21)CCN3`, with 239 to 240 °C. On to `COC(=O)c1c(OC)c(OC)cc2[nH]c(=O)c(=O)[nH]c12`, for which the melting point was > 300 °C. For `Oc1ccccc1-c1nc(-c2ccccc2O)n(Cc2cccnc2)n1`, the melting point lay in the range of 174 to 176 °C.

Regarding `CC(C)(CO)NC(N)=S`, the melting point is 127 to 129 °C.

`C=CCOc1ccccc1C1C(C(=O)OCC)=C(C)NC(C=O)=C1C(=O)OCC` (centres undefined) showed a melting point of 129 to 131 °C.

In turn, `Cc1ccc(N(C)S(=O)(=O)c2cccs2)c2[nH]c(C(=O)O)cc12` gave a melting point of 223 to 225 °C. As to `O=C1N(CCCCCl)CCN1c1ccccc1`, the melting point lay within 47.5 to 49 °C. For `CCC(=O)c1ccc(SCCCBr)cc1`, the melting point was in the range of 40 to 41 °C.

In turn, `CC(C)(C)c1cc(C(C)(C)C)cc(C(C)(C)CC(=O)OP2(=O)Oc3c(cc(C(C)(C)C)cc3C(C)(C)C)Cc3cc(C(C)(C)C)cc(C(C)(C)C)c3O2)c1` showed a melting point of 188 °C. Molecule `COc1ccc2c(c1)C(=O)c1cccc(OC)c1-2` displayed a melting point of 125 to 127 °C. Regarding `COc1cc(C(=O)N(C(C)C)C2CCCCC2)ccc1Cn1cccc2nc(-c3cccnc3)nc1-2`, the melting point was in the range of 185 to 188 °C. `CC(C)Nc1nc2cc(F)c(Cl)cc2n1[C@@H]1O[C@H](C)[C@@H](O)[C@H]1O` had a melting point of 97 to 99 °C. The molecule `N#Cc1cc2sccc2nc1Cl` returned a melting point of 222 to 224 °C. `COC(=O)c1cc(Cl)sc1NC(C)=O` came in with a melting point of 110 °C. Consider `COC(=O)c1c(OC)cc(OC)nc1C(F)(F)F`, for which the melting point lay within 85 to 87.5 °C. `OCCC(c1ccccc1)(c1ccccc1)c1ccccc1` registered a melting point of 103 to 106 °C. For the molecule `O=C(N[C@H]1CCN(C(=O)c2cc(C(F)(F)F)cc(C(F)(F)F)c2)[C@H](Cc2ccccc2)C1)c1ccnc2ccccc12`, the melting point was found to be 187 °C. For `COc1cc(OC)c(N2CCCC2)cc1/C=C/C(=O)c1ccc(S(=O)(=O)NCCCN2CCN(C)CC2)cc1`, the melting point was 64 to 68 °C. As for `CCOC(=O)c1ccc(Cn2cnc3ccncc32)cc1`, the melting point is 110 to 112 °C. On to `COc1ccc(-n2c(=O)cc(OC(C)=O)c3ccccc32)cc1`, for which the melting point is 174 to 175 °C.

`CC(C)=CCCC(C)C1CCC2C3=CC=C4CC(O)CCC4(C)C3CCC21C` (centres undefined): the melting point fell in the range of 114 to 117 °C. The molecule `CNC(=O)c1cc(-c2ccc(OC)cc2)nn(CCO)c1=O` came in with a melting point of 160 to 161 °C. As to `O=Cc1c(-c2ccc(Cl)cc2)sc2ccccc12`, the melting point was in the range of 99.7 to 101 °C. The molecule `O=C1N(Cc2ccccc2)C(O)C2CSC(c3ccccc3)N12` (mixture of isomers) yielded a melting point of 151 to 153 °C.

The molecule `NC(=O)N1CCCC(CC(=O)c2ccc(F)cc2)C1` (centres undefined) had a melting point of 136 to 138 °C. For `CCOCc1nc2c(N)nc3ccccc3c2n1CCCCS(=O)(=O)NC`, the melting point is 170 to 172 °C. The molecule `O=C1CCCC(O)=C1NC(=O)C1CC1` had a melting point of 82 °C.

Turning to `COCCN1C(=S)N(c2ccc(C#N)c(C(F)(F)F)c2)C(=O)C1(C)C`, the melting point was 98 to 99 °C. Molecule `COc1ccccc1CNc1ccc2cc(Nc3nnc(C4CC4)o3)ccc2n1` registered a melting point of 199 °C.

With `NC(=O)c1cnc2n(c1=O)CCCCC2`, the melting point was in the range of 234 to 235 °C. As for `CC1(C)OCCC2N1C(=O)C2(Sc1ccccc1)C1(O)CCSCC1` (centres undefined), the melting point is 191 to 192 °C.

In the case of `CSCc1ccc(NC(=O)/C=C/c2cnn(C)c2-c2ccc(F)cc2)cc1`, the melting point is 165 to 168 °C. Then `COc1ccc(S(=O)(=O)NC(C)(C)C(=O)NO)cc1`, with 122 to 125 °C; and `CCOC(=O)C1=C(N2CCCC2)N=C(C)C(C(=O)OCC)C1c1cccc2ccccc12` (centres undefined), with 121 °C. Turning to `CN(C)C(=O)c1cc2c(OC[C@@H](O)CN3CCC(c4ccc5ccccc5c4)CC3)cccc2n1C`, the melting point lay within 146 to 148 °C. `Cc1ccc(C2c3c(C)c(-n4cc5cc6c(cc5c4)OCO6)c(C)c(C)c3OC2(C)C)cc1` (centres undefined) returned a melting point of 236 to 242 °C.

Turning to `CCCC[C@@H]1CCc2ccc(OCc3ccc4ccccc4n3)cc2[C@H]1O`, the melting point is 58 to 59 °C. Turning to `O=C(O)COc1cccc2c(CNC(=O)COc3ccccc3)coc12`, the melting point is 156 to 157 °C. In turn, `CO/C(=C1/C(C)=C(CC(=O)O)c2cc(F)ccc21)c1ccccc1` yielded a melting point of 184 to 186 °C.

The molecule `O=C(CCCN1CCCCC1)c1ccc2sc3ccc(C(=O)CCCN4CCCCC4)cc3c2c1` came in with a melting point of 93 to 95 °C. Molecule `O=C(O)c1cnc2n(c1=O)CCc1cc(O)c(O)cc1-2` came in with a melting point of 308 to 314 °C.

The molecule `CC(C)c1ncc2n1-c1ccc(Cl)cc1C(c1ccccc1F)=NC2` came in with a melting point of 168 to 169 °C. In the case of `CC12CCC(OC(=O)C(F)(F)F)CC1=CCC1=C2CCC2(C)C(=O)CCC12` (centres undefined), the melting point was 109 to 115 °C. For `CCc1nc(OC)c(NC(=O)N2CCN(c3cccc(O)c3)CC2)cc1C(=O)NC(C)C(=O)Nc1cc(CO)cc(Nc2c3ccccc3nc3ccccc23)c1` (centres undefined), the melting point was in the range of 207 to 209 °C. In turn, `CCCCc1nc(Cl)c(C=O)n1Cc1ccc(-c2ccccc2-c2nc(=O)o[nH]2)cc1` showed a melting point of 181 to 183 °C.

On to `Cc1cccc(-c2nc(CCOc3ccc(CCCC4OC(=O)NC4=O)cc3)c(C)o2)c1` (centres undefined), for which the melting point was 149 to 150 °C. Molecule `O=C1C2=C(CCCC2)C(=O)C1=C1C=CNC=C1` yielded a melting point of 258 to 261 °C.

The molecule `CC(C)CNC(=O)C(C)(C)N=NC(C)(C)C(=O)NCC(C)C` showed a melting point of 100 °C.

For the molecule `CN(C=O)CNC(=O)c1snc(Cl)c1Cl`, the melting point lay in the range of 87 to 88 °C. As for `CCS(=O)(=O)Cc1cccc(-c2nc(=O)c3ccccc3s2)n1`, the melting point was 188 to 190 °C. As to `Nc1ccc(C#Cc2ccc(OC3CN4CCC3CC4)nn2)cc1` (centres undefined), the melting point is 212 to 220 °C. Then `O=C(C=Cc1cccnc1)NCCCCC1CCN(C(Br)(c2ccccc2)C2CCCCC2)CC1` (centres undefined), with 143 to 145 °C; and `COc1cc2ncc(O[C@H]3CC[C@H](C(=O)O)CC3)nc2cc1OC`, with 90 to 93 °C; and `COc1ccc(C(=O)Nc2ccccc2)cc1NC(=S)Nc1cccc(C#N)c1`, with 183 to 185 °C. The molecule `Cc1ccc2c(c1)C=Cc1cc(C)ccc1C2c1cn(Cc2nc(C(=O)Nc3nc(CC(=O)O)cs3)cs2)c(=O)[nH]c1=S` yielded a melting point of 200 to 205 °C.

Take `C=C(C(=O)OCC)N1C(C)(C)CC(OC(=O)C=CC(=O)OC2CC(C)(C)N(C(=C)C(=O)OCC)C(C)(C)C2)CC1(C)C`: the melting point was 185 to 186 °C.
